According to PMC9028786, “The Ribosome Is the Ultimate Receptor for Trypsin Modulating Oostatic Factor (TMOF)” (Biomolecules, 2022):

Test system: E. coli ribosome
Experiment: Binding of AeaTMOF-FITC to purified E. coli ribosomes
Parameters: species or system Escherichia coli
Experimental: The purification of E. coli ribosomes is a modification of earlier published methods. Briefly, E. coli (BL21) cells were grown in LB medium for 24 h to OD600 of 1.1, and the cells were centrifuged at 5000 rpm at 6 °C for 5 min. The supernatant was discarded and the pellet was washed with 40 mM HEPES-KOH pH7.4, 100 mM NaCl, and 2 mM Mg(OAc)2 buffer. The suspension was centrifuged at 6000 rpm for 5 min, the supernatant discarded, and the pellet was frozen at −80 °C and stored overnight. The frozen pellet was taken up in 10 mL of sonication buffer of 20 mM HEPES-KOH pH 7.5, 100 NH4OAc, 6 mM βME, 0.5 mM Na-EDTA, and 0.5% Tween 20 containing 100 units of RNase inhibitor, and the solution was sonicated at 40% power for 10 s, 50% power for 10 s, and 60% power for 20 s. During the sonication, the tube was immersed in an ice bath. The lysed cell solution (25 mL) in sonication buffer was centrifuged at 30,000 g in a Beckman ultracentrifuge using a 70Ti centrifuge rotor for 30 min at 4 °C. After centrifugation, the supernatant was collected, and the pellet discarded. […] The amount of the protein in the ribosome preparation and the ribosomal RNA was determined (2.28 mg/mL protein and 3.932 mg/mL ribosomal RNA). […]
Purified E. coli ribosomes (1 μL, 9.4 μg) in tight association buffer (20 mM HEPES-KOH pH 7.6, 6 mM Mg(OAc)2, 30 mM NH4OAc, and 6 mM βME) were incubated in Eppendorf tubes containing 100 μL of tight association buffer and 5 μL of AeaTMOF-FITC (0–0.2 μM) (Specific activity 8333 Fluorescence Units/pmol) for 60 min at 30 °C with gentle shaking. […] The washing by centrifugation with 5% TCA was repeated 3 times, and after the final centrifugation, the pellets were dissolved in 100 μL of PBS containing 0.4N NaOH, and the fluorescence of the dissolved pellets was read in a GloMax multidetector system using a blue filter (Excitation at 490 nm and Emission at 510–570 nm). All data were corrected for nonspecific fluorescence when incubations were run without AeaTMOF-FITC or with AeaTMOF-FITC and without ribosomes. […]

H-YDPAPPPPPPK(FITC)K-OH [AeaTMOF-FITC, H-[…](FITC)K-OH, FITC-labelled AeaTMOF]
Kassoc, affinity constant (calculated from specific binding KD): 4.3e+07 M⁻¹
Kd (purified E. coli (BL21) ribosomes 9.4 μg, AeaTMOF-FITC 0–0.2 μM, tight association buffer pH 7.6, 60 min at 30 °C, TCA precipitation, fluorescence, nonspecific binding subtracted, nonlinear regression, ± SEM, n = 6): 23 ± 3.4 nM
Bmax, ribosome binding (purified E. coli ribosomes, AeaTMOF-FITC 0–0.2 μM, pH 7.6, 60 min at 30 °C, fluorescence, nonlinear regression, ± SEM, n = 6): 0.553 ± 0.023 pmol/μg ribosome
